# Legend:
# [1] = Brain and plasma concentrations by HPLC after IV administration; format: in vivo, C57/BL6 mice; conditions: single IV administration
# Protocol: FIGS. 9A-B show GEMM survival and brain/blood plasma concentrations following treatment with NSC682769. […] C57/BL6 mice were administered NSC682769 IV and mean brain and plasma concentrations were determined via HPLC analyses. (n=5).
# Protein and mRNA analyses, immunoprecipitation, in vitro bead-coupled inhibitor binding assays and HPLC analyses. Western blot analyses were performed as previously described (Artinian N, et al. (2015) J Biol Chem 290: 19387-19401). Briefly, cells were lysed in RIPA (lysis) buffer containing protease inhibitor cocktail and phosSTOP™ phosphatase inhibitor cocktail (Roche) and extracts resolved by SDS-PAGE. Proteins were transferred to PVDF membranes and incubated with the indicated antibodies. Antigen-antibody complexes were detected using appropriate horseradish peroxidase-conjugated secondary antibodies (GE Healthcare) and enhanced chemiluminescence (Amersham ECL Prime). […] For quantitative RT-PCR, extraction of RNA was performed using Trizol® (Life Technologies). Total RNA was then quantified and integrity assessed using an Agilent 2100 Bioanalyzer (Agilent Technology). […] SYBR® Green quantitative PCR (Millipore Sigma) was performed in triplicate in 96-well optical plates on an ABI Prism 7000 Sequence Detection System (Life Technologies) according to the manufacturer's instructions. […]
# LN229 and GBM39 cells [2] = assay: GBM cell proliferation; format: cell-based, human; conditions: 0.1, 1, 2 μM
# Source text: (§1) Cells were layered in soft agar to evaluate anchorage-independent growth in the presence of the indicated concentrations of inhibitor and colonies counted following 14 days of growth. Representative crystal violet stained images are shown below. Data represent mean+S.D. of three independent experiments. […] Cells were placed in Boyden chambers and allowed to migrate towards BSA (white bars), vitronectin (light yellow bars), or fibronectin (dark yellow bars) (*, P<0.05; n=3). […] Representative crystal violet stained images are shown (200×). Data represent mean+S.D. of three independent experiments. […] Graphical data shown below represent mean+S.D. (late apoptosis; annexin V-positive, PI-positive) of three independent experiments.
# (§2) Cell proliferation, clonogenic, migration, invasion and apoptosis assays. Cell proliferation was determined via Cell Titer-Glo® luminescent cell assays (Promega). Clonogenic assays were done by plating a total of 1,000 cells per well in 24-well plates in a total volume of 400 μL using a two-layered soft agar system as previously described (Masri J, et al. (2007) Cancer Res 67: 11712-11720). Cell migration assays were conducted using precoated modified Boyden chambers as previously described (Benavides-Serrato A, et al. (2017) PLoS One 12: e0176599). […]
# LN229 and GBM39 cells [3] = assay: Annexin V-FITC/PI apoptosis by flow cytometry; format: cell-based, human; conditions: LN229 and GBM39, 48 h
# Source text: as §1, §2
structure (smiles),measurement,setting,value
COc1ccc(-c2cc(-c3ccccc3)nc3c2CC(=O)Nc2ccccc2-3)cc1OC [NSC682769],Cb/Cp ratios (brain/plasma),[1],consistent with BBB penetrance
same,Peak value in brain tissue,[1]; at 5 min post-administration,6.22 µg/g
same,Cell growth,LN229 and GBM39 cells [2],significantly inhibited
same,Apoptosis,LN229 and GBM39 cells [3],enhanced

# Reference: patent US20240108634A1, “COMPOSITIONS AND METHODS FOR INHIBITING YAP” (The United States Government as represented by the …, priority 2021, published 2024)
